Reference: US10780074B2, “Compounds and uses thereof” (Sunovion Pharmaceuticals Inc., priority 2017, dated 2020)
Counter-ions that a name gives are not always drawn.

system: behaviors of compound-treated mice; experiment: Neuropharmacological Assay (SmartCube); type: in vivo; details: Mus musculus, ip, 0.25 h, dose having 50% or more total activity in SmartCube, i.p., read-out: MED (minimal effective dose)
Outline: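 Behavioral signatures were captured automatically by video, and each drug class received a probability for the best of three i.p. doses given 15 min pre-test (vehicle: Pharmasolve/PEG/propylene glycol). Potency is given as MED, the lowest mpk dose (typically 0.3–30) reaching 50% or more total activity.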

| Structure (SMILES) | minimal effective dose |
| --- | --- |
| CNC[C@@H]1OCCc2cc(-c3cccnc3)ccc21 [Compound 5, (R)-N-Methyl(6-(pyridin-3-yl)isochroman-1-yl)methanamine bis-hydrochloride] | 3 to 10 mg/kg |
| CNC[C@H]1OCCc2cc(-c3cccnc3)ccc21 [Compound 6, (S)-N-methyl(6-(pyridin-3-yl)isochroman-1-yl)methanamine bis-hydrochloride] | 10 to 30 mg/kg |
| NC[C@H]1OCCc2cc(-c3cccnc3)ccc21 [Compound 14, hydrochloride salt] | 3 to 10 mg/kg |
| NC[C@@H]1OCCc2c(-c3cccnc3)cccc21 [Compound 15, (R)-(5-(Pyridin-3-yl)isochroman-1-yl)methanamine hydrochloride] | 10 to 30 mg/kg |
| NC[C@H]1OCCc2c(-c3cccnc3)cccc21 [Compound 16, (S)-(5-(Pyridin-3-yl)isochroman-1-yl)methanamine hydrochloride] | ≤ 3 mg/kg |
| CNC[C@@H]1OCCc2c(-c3ccncc3)cccc21 [Compound 17, (R)—N-Methyl(5-(pyridin-4-yl)isochroman-1-yl)methanamine dihydrochloride salt] | ≤ 3 mg/kg |
| CNC[C@H]1OCCc2c(-c3ccncc3)cccc21 [Compound 18, (S)—N-Methyl(5-(pyridin-4-yl)isochroman-1-yl)methanamine dihydrochloride salt] | 10 to 30 mg/kg |
| NC[C@@H]1OCCc2c(-c3ccncc3)cccc21 [Compound 19, (R)-(5-(Pyridin-4-yl)isochroman-1-yl)methanamine hydrochloride salt] | > 30 mg/kg |
| NC[C@H]1OCCc2c(-c3ccncc3)cccc21 [Compound 20, (S)-(5-(Pyridin-4-yl)isochroman-1-yl)methanamine hydrochloride salt] | ≤ 3 mg/kg |
| CNC[C@@H]1OCCc2cc(-c3ncccn3)ccc21 [Compound 21, (R)—N-Methyl-1-(6-(pyrimidin-2-yl)isochroman-1-yl)methanamine hydrochloride salt] | 10 to 30 mg/kg |
| CNC[C@H]1OCCc2cc(-c3ncccn3)ccc21 [Compound 22, (S)—N-Methyl-1-(6-(pyrimidin-2-yl)isochroman-1-yl)methanamine hydrochloride salt] | 10 to 30 mg/kg |
| CNC[C@H]1OCCc2c(-c3ncccn3)cccc21 [Compound 23, (S)—N-Methyl-1-(5-(pyrimidin-2-yl)isochroman-1-yl)methanamine hydrochloride salt] | 10 to 30 mg/kg |
| CNC[C@@H]1OCCc2c(-c3ncccn3)cccc21 [Compound 24, (R)—N-Methyl-1-(5-(pyrimidin-2-yl)isochroman-1-yl)methanamine hydrochloride] | > 30 mg/kg |

same assay, conditions: i.p. 15 min before behavioral test, most efficacious dose(s) of 3 doses

| Structure (SMILES) | AD: ADHD (probability that activity matches class) | AG: analgesic (probability that activity matches class) | AX: anxiolytic (probability that activity matches class) | CE: cognitive enhancer (probability that activity matches class) | DP: anti-depressant (probability that activity matches class) | MS: mood stabilizer (probability that activity matches class) | PS: anti-psychotic (probability that activity matches class) | SD: sedative hypnotic (probability that activity matches class) | UN: uncharacterized CNS activity (probability that activity matches class) |
| --- | --- | --- | --- | --- | --- | --- | --- | --- | --- |
| CNC[C@@H]1OCCc2cc(-c3cccnc3)ccc21 [Compound 5, (R)-N-Methyl(6-(pyridin-3-yl)isochroman-1-yl)methanamine bis-hydrochloride] | + (LOQ ≤ + <5%) | ++ (5% ≤ ++ <25%) | ++ (5% ≤ ++ <25%) | + (LOQ ≤ + <5%) | ++++ (50% ≤ ++++) | + (LOQ ≤ + <5%) | ++ (5% ≤ ++ <25%) | + (LOQ ≤ + <5%) | + (LOQ ≤ + <5%) |
| CNC[C@H]1OCCc2cc(-c3cccnc3)ccc21 [Compound 6, (S)-N-methyl(6-(pyridin-3-yl)isochroman-1-yl)methanamine bis-hydrochloride] | + (LOQ ≤ + <5%) | ++ (5% ≤ ++ <25%) | ++ (5% ≤ ++ <25%) | ++ (5% ≤ ++ <25%) | +++ (25% ≤ +++ <50%) | + (LOQ ≤ + <5%) | ++ (5% ≤ ++ <25%) | + (LOQ ≤ + <5%) | + (LOQ ≤ + <5%) |
| NC[C@H]1OCCc2cc(-c3cccnc3)ccc21 [Compound 14, hydrochloride salt] | + (LOQ ≤ + <5%) | ++ (5% ≤ ++ <25%) | ++ (5% ≤ ++ <25%) | + (LOQ ≤ + <5%) | ++++ (50% ≤ ++++) | + (LOQ ≤ + <5%) | + (LOQ ≤ + <5%) | + (LOQ ≤ + <5%) | ++ (5% ≤ ++ <25%) |
| NC[C@@H]1OCCc2c(-c3cccnc3)cccc21 [Compound 15, (R)-(5-(Pyridin-3-yl)isochroman-1-yl)methanamine hydrochloride] | ++ (5% ≤ ++ <25%) | ++ (5% ≤ ++ <25%) | ++ (5% ≤ ++ <25%) | + (LOQ ≤ + <5%) | +++ (25% ≤ +++ <50%) | ++ (5% ≤ ++ <25%) | ++ (5% ≤ ++ <25%) | + (LOQ ≤ + <5%) | + (LOQ ≤ + <5%) |
| NC[C@H]1OCCc2c(-c3cccnc3)cccc21 [Compound 16, (S)-(5-(Pyridin-3-yl)isochroman-1-yl)methanamine hydrochloride] | + (LOQ ≤ + <5%) | + (LOQ ≤ + <5%) | ++ (5% ≤ ++ <25%) | ++ (5% ≤ ++ <25%) | ++++ (50% ≤ ++++) | + (LOQ ≤ + <5%) | + (LOQ ≤ + <5%) | + (LOQ ≤ + <5%) | + (LOQ ≤ + <5%) |
| CNC[C@@H]1OCCc2c(-c3ccncc3)cccc21 [Compound 17, (R)—N-Methyl(5-(pyridin-4-yl)isochroman-1-yl)methanamine dihydrochloride salt] | ++ (5% ≤ ++ <25%) | + (LOQ ≤ + <5%) | + (LOQ ≤ + <5%) | + (LOQ ≤ + <5%) | ++++ (50% ≤ ++++) | + (LOQ ≤ + <5%) | + (LOQ ≤ + <5%) | ++ (5% ≤ ++ <25%) | ++ (5% ≤ ++ <25%) |
| CNC[C@H]1OCCc2c(-c3ccncc3)cccc21 [Compound 18, (S)—N-Methyl(5-(pyridin-4-yl)isochroman-1-yl)methanamine dihydrochloride salt] | + (LOQ ≤ + <5%) | + (LOQ ≤ + <5%) | + (LOQ ≤ + <5%) | + (LOQ ≤ + <5%) | ++++ (50% ≤ ++++) | + (LOQ ≤ + <5%) | + (LOQ ≤ + <5%) | + (LOQ ≤ + <5%) | + (LOQ ≤ + <5%) |
| NC[C@@H]1OCCc2c(-c3ccncc3)cccc21 [Compound 19, (R)-(5-(Pyridin-4-yl)isochroman-1-yl)methanamine hydrochloride salt] | + (LOQ ≤ + <5%) | ++ (5% ≤ ++ <25%) | ++ (5% ≤ ++ <25%) | ++ (5% ≤ ++ <25%) | ++ (5% ≤ ++ <25%) | + (LOQ ≤ + <5%) | + (LOQ ≤ + <5%) | + (LOQ ≤ + <5%) | + (LOQ ≤ + <5%) |
| NC[C@H]1OCCc2c(-c3ccncc3)cccc21 [Compound 20, (S)-(5-(Pyridin-4-yl)isochroman-1-yl)methanamine hydrochloride salt] | ++ (5% ≤ ++ <25%) | ++ (5% ≤ ++ <25%) | ++ (5% ≤ ++ <25%) | + (LOQ ≤ + <5%) | ++++ (50% ≤ ++++) | + (LOQ ≤ + <5%) | + (LOQ ≤ + <5%) | + (LOQ ≤ + <5%) | ++++ (50% ≤ ++++) |
| CNC[C@@H]1OCCc2cc(-c3ncccn3)ccc21 [Compound 21, (R)—N-Methyl-1-(6-(pyrimidin-2-yl)isochroman-1-yl)methanamine hydrochloride salt] | + (LOQ ≤ + <5%) | ++ (5% ≤ ++ <25%) | ++ (5% ≤ ++ <25%) | ++ (5% ≤ ++ <25%) | ++ (5% ≤ ++ <25%) | + (LOQ ≤ + <5%) | + (LOQ ≤ + <5%) | + (LOQ ≤ + <5%) | + (LOQ ≤ + <5%) |
| CNC[C@H]1OCCc2cc(-c3ncccn3)ccc21 [Compound 22, (S)—N-Methyl-1-(6-(pyrimidin-2-yl)isochroman-1-yl)methanamine hydrochloride salt] | + (LOQ ≤ + <5%) | ++ (5% ≤ ++ <25%) | ++ (5% ≤ ++ <25%) | ++ (5% ≤ ++ <25%) | ++ (5% ≤ ++ <25%) | + (LOQ ≤ + <5%) | + (LOQ ≤ + <5%) | + (LOQ ≤ + <5%) | +++ (25% ≤ +++ <50%) |
| CNC[C@H]1OCCc2c(-c3ncccn3)cccc21 [Compound 23, (S)—N-Methyl-1-(5-(pyrimidin-2-yl)isochroman-1-yl)methanamine hydrochloride salt] | ++ (5% ≤ ++ <25%) | ++ (5% ≤ ++ <25%) | ++ (5% ≤ ++ <25%) | + (LOQ ≤ + <5%) | ++++ (50% ≤ ++++) | + (LOQ ≤ + <5%) | + (LOQ ≤ + <5%) | + (LOQ ≤ + <5%) | + (LOQ ≤ + <5%) |
| CNC[C@@H]1OCCc2c(-c3ncccn3)cccc21 [Compound 24, (R)—N-Methyl-1-(5-(pyrimidin-2-yl)isochroman-1-yl)methanamine hydrochloride] | + (LOQ ≤ + <5%) | + (LOQ ≤ + <5%) | ++ (5% ≤ ++ <25%) | + (LOQ ≤ + <5%) | + (LOQ ≤ + <5%) | + (LOQ ≤ + <5%) | + (LOQ ≤ + <5%) | + (LOQ ≤ + <5%) | ++ (5% ≤ ++ <25%) |
